Experimental data from patent US20250129099A1, “INHIBITOR OF APOPTOSIS (IAP) PROTEIN ANTAGONISTS” (Sanford Burnham Prebys Medical Discovery Institute, priority 2021, published 2025).
Structures can show the parent of a compound that is named as a salt. Where two headings read alike, the source gives them in different places.

How the values were obtained:
SKOV-3 cancer cell lines = test: Cell viability of SKOV-3 cancer cell lines after treatment with test compound; assay type: cell-based
Description: […] Cell viability is evaluated following treatment with a compound as disclosed in Table B. Viability of cancer cells following treatment is indicated according to the following legend:

OVCAR-4 = test: Cell viability of OVCAR-4 cells after treatment with test compound; assay type: cell-based
[1] = Homo sapiens, SK-OV-3, SKOV-3 cancer cells

SMILES | IC50 (SKOV-3 cancer cell lines; [1]) [µM] | IC50 (OVCAR-4; Homo sapiens) [µM] | IC50 (SKOV-3 cancer cell lines; SKOV-3 cancer cells) [µM] | IC50 (OVCAR-4) [µM]
CC[C@H](NC)C(=O)N[C@H]1CCSC2CC(C)(C)[C@@H](C(=O)N[C@@H]3CCOc4ccccc43)N2C1=O (stereo partly drawn) [Compound 8, (4S,7S)—N—((R)-chroman-4-yl)-8,8-dimethyl-4-((S)-2-(methylamino)butanamido)-5-oxooctahydropyrrolo[2,1-b][1,3]thiazepine-7-carboxamide hydrochloride] | 0.001 to 0.01 | 0.01 to 0.1 | – | –
CN[C@@H](C)NC(=O)N[C@H]1CCSC2CC(C)(C)[C@@H](C(=O)N[C@@H]3CCOc4ccccc43)N2C1=O (stereo partly drawn) [Compound 7, (4S,7S)—N—((R)-chroman-4-yl)-8,8-dimethyl-4-(3-((R)-1-(methylamino)ethyl)ureido)-5-oxooctahydropyrrolo[2,1-b][1,3]thiazepine-7-carboxamide hydrochloride] | > 1 | > 1 | – | –
CC[C@H](NC)C(=O)N[C@H]1CCO[C@H]2CC3(CCCC3)[C@@H](C(=O)N[C@@H]3CCOc4ccccc43)N2C1=O [Compound 10, (4′S,7′S,9a'S)-4′-((S)-2-(chloro(methyl)-16-azaneyl)butanamido)-N-(chroman-4-yl)-5′-oxohexahydro-7′H-spiro[cyclopentane-1,8′-pyrrolo[2,1-b][1,3]oxazepine]-7′-carboxamide] | 0.001 to 0.01 | 0.1 to 1 | – | –
CN[C@@H](C)C(=O)N[C@H]1CCO[C@H]2CC3(CC=CC3)[C@@H](C(=O)N[C@H]3CCOc4ccccc43)N2C1=O [Compound 12, (4′S,7′S,9a'S)-4′-((S)-2-(chloro(methyl)-15-azaneyl)propanamido)-N—((S)-chroman-4-yl)-5′-oxo-2′,3′,4′,5′,9′,9a′-hexahydro-7′H-spiro[cyclopentane-1,8′-pyrrolo[2,1-b][1,3]oxazepin]-3-ene-7′-carboxamide] | – | – | 0.1 to 1 | > 1
CC[C@H](NC)C(=O)N[C@H]1CCO[C@H]2CC3(CC=CC3)[C@@H](C(=O)N[C@@H]3CCOc4ccccc43)N2C1=O [Compound 13, (4′S,7′S,9a'S)-4′-((S)-2-(chloro(methyl)-16-azaneyl)butanamido)-N—((S)-chroman-4-yl)-5′-oxo-2′,3′,4′,5′,9′,9a′-hexahydro-7′H-spiro[cyclopentane-1,8′-pyrrolo[2,1-b][1,3]oxazepin]-3-ene-7′-carboxamide] | 0.001 to 0.01 | 0.1 to 1 | – | –
CN[C@@H](C)C(=O)N[C@H]1CCO[C@H]2CC3(CCCC3)[C@@H](C(=O)N[C@@H]3CCOc4ccccc43)N2C1=O [Compound 9, (4′S,7′S,9a'S)-4′-((S)-2-(chloro(methyl)-16-azaneyl)propanamido)-N-(chroman-4-yl)-5′-oxohexahydro-7′H-spiro[cyclopentane-1,8′-pyrrolo[2,1-b][1,3]oxazepine]-7′-carboxamide] | 0.001 to 0.01 | 0.1 to 1 | – | –

More lines, main results first:

IC50 (SKOV-3 cancer cell lines; [1]) [µM] | IC50 (OVCAR-4; Homo sapiens) [µM] | SMILES | IC50 (SKOV-3 cancer cell lines; SKOV-3 cancer cells) [µM] | IC50 (OVCAR-4) [µM]
0.001 to 0.01 | 0.1 to 1 | CN[C@@H](C)C(=O)N[C@H]1CCS[C@H]2CC(C)(C)[C@@H](C(=O)N[C@@H]3CCSc4ccccc43)N2C1=O [Compound 2, (4S,7S)-8,8-dimethyl-4-((S)-2-(methylamino)propanamido)-5-oxo-N—((R)-thiochroman-4-yl)octahydropyrrolo[2,1-b][1,3]thiazepine-7-carboxamide hydrochloride] | – | –
0.001 to 0.01 | 0.1 to 1 | CN[C@@H](C)C(=O)N[C@H]1CCS[C@H]2CC3(CC=CC3)[C@@H](C(=O)N[C@@H]3CCSc4ccccc43)N2C1=O [Compound 4, (4′S,7′S,9a'S)-4′-((S)-2-(chloro(methyl)-15-azaneyl)propanamido)-5′-oxo-N—((R)-thiochroman-4-yl)-2′,3′,4′,5′,9′,9a′-hexahydro-7′H-spiro[cyclopentane-1,8′-pyrrolo[2,1-b][1,3]thiazepin]-3-ene-7′-carboxamide] | – | –
0.001 to 0.01 | 0.1 to 1 | CN[C@@H](C)C(=O)N[C@H]1CCS[C@H]2CC3(CCCC3)[C@@H](C(=O)N[C@@H]3CCSc4ccccc43)N2C1=O [Compound 6, (4′S,7′S,9a'S)-4′-((S)-2-(chloro(methyl)-15-azaneyl)propanamido)-5′-oxo-N—((R)-thiochroman-4-yl)hexahydro-7′H-spiro[cyclopentane-1,8′-pyrrolo[2,1-b][1,3]thiazepine]-7′-carboxamide] | – | –
0.001 to 0.01 | 0.01 to 0.1 | CN[C@@H](C)C(=O)N[C@H]1CCS[C@H]2CC(C)(C)[C@@H](C(=O)N[C@@H]3CCOc4ccccc43)N2C1=O [Compound 1, (4S,7S)—N—((R)-chroman-4-yl)-8,8-dimethyl-4-((S)-2-(methylamino)propanamido)-5-oxooctahydropyrrolo[2,1-b][1,3]thiazepine-7-carboxamide hydrochloride] | – | –
0.001 to 0.01 | 0.01 to 0.1 | CN[C@@H](C)C(=O)N[C@H]1CCS[C@H]2CC3(CCCC3)[C@@H](C(=O)N[C@@H]3CCOc4ccccc43)N2C1=O [Compound 5, (4′S,7′S,9a'S)-4′-((S)-2-(chloro(methyl)-15-azaneyl)propanamido)-N-(chroman-4-yl)-5′-oxohexahydro-7′H-spiro[cyclopentane-1,8′-pyrrolo[2,1-b][1,3]thiazepine]-7′-carboxamide] | – | –
0.001 to 0.01 | 0.01 to 0.1 | CN[C@@H](C)C(=O)N[C@H]1CCS[C@H]2CC3(CC=CC3)[C@@H](C(=O)N[C@@H]3CCOc4ccccc43)N2C1=O [Compound 3, (4′S,7′S,9a'S)-4′-((S)-2-(chloro(methyl)-15-azaneyl)propanamido)-N—((R)-chroman-4-yl)-5′-oxo-2′,3′,4′,5′,9′,9a′-hexahydro-7′H-spiro[cyclopentane-1,8′-pyrrolo[2,1-b][1,3]thiazepin]-3-ene-7′-carboxamide] | – | –
0.001 to 0.01 | 0.01 to 0.1 | CN[C@@H](C)C(=O)N[C@H]1CCS[C@H]2CC3(CC=CC3)[C@@H](C(=O)N[C@@H]3CCCc4ccccc43)N2C1=O [Compound 11, (4′S,7′S,9a'S)-4′-((S)-2-(chloro(methyl)-15-azaneyl)propanamido)-5′-oxo-N-(1,2,3,4-tetrahydronaphthalen-1-yl)-2′,3′,4′,5′,9′,9a′-hexahydro-7′H-spiro[cyclopentane-1,8′-pyrrolo[2,1-b][1,3]thiazepin]-3-ene-7′-carboxamide] | – | –
